# Measured values as given in PubChem BioAssay (NCI).
#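 96-well plates; 48 h exposure; 5 concentrations. Endpoints by linear interpolation between flanking doses. Not reached: highest tested concentration assigned. At the GI50, growth is halved. TGI marks complete inhibition of growth.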
# What was measured:
# Experiment in all cases: DTP human tumour cell line panel, 48 h
# SW-620 colon = system: SW-620 colon
# 786-0 renal = system: 786-0 renal
# KM12 colon = system: KM12 colon
# NCI/ADR-RES ovarian = system: NCI/ADR-RES ovarian
# SF-268 CNS = system: SF-268 CNS
# M14 melanoma = system: M14 melanoma
# DU-145 prostate = system: DU-145 prostate
# OVCAR-3 ovarian = system: OVCAR-3 ovarian
# HL-60(TB) leukemia = system: HL-60(TB) leukemia
# A498 renal = system: A498 renal
# NCI-H460 lung = system: NCI-H460 lung
# SR leukemia = system: SR leukemia
# HCC-2998 colon = system: HCC-2998 colon
# COLO 205 colon = system: COLO 205 colon
# TK-10 renal = system: TK-10 renal
# PC-3 prostate = system: PC-3 prostate
# SK-MEL-28 melanoma = system: SK-MEL-28 melanoma
# NCI-H226 lung = system: NCI-H226 lung
# T-47D breast = system: T-47D breast
# IGROV1 ovarian = system: IGROV1 ovarian
# SK-OV-3 ovarian = system: SK-OV-3 ovarian
# CAKI-1 renal = system: CAKI-1 renal
# NCI-H23 lung = system: NCI-H23 lung
# SK-MEL-2 melanoma = system: SK-MEL-2 melanoma
# OVCAR-8 ovarian = system: OVCAR-8 ovarian
# MALME-3M melanoma = system: MALME-3M melanoma
# BT-549 breast = system: BT-549 breast
# HCT-116 colon = system: HCT-116 colon
# SK-MEL-5 melanoma = system: SK-MEL-5 melanoma
smiles,measurement,setting,value
O=C1CCC(N2C(=O)c3cccc(NCCCCCC(=O)N4CCN(c5ccc6nc7c(nc6c5C(F)(F)F)C(=O)c5ncccc5C7=O)CC4)c3C2=O)C(=O)N1 (configuration not stated),GI50,SW-620 colon,368 nM
same,TGI,SW-620 colon,1810 nM
same,GI50,786-0 renal,1590 nM
same,TGI,786-0 renal,4580 nM
same,GI50,KM12 colon,1430 nM
same,TGI,KM12 colon,3590 nM
same,GI50,NCI/ADR-RES ovarian,2070 nM
same,TGI,NCI/ADR-RES ovarian,20800 nM
same,GI50,SF-268 CNS,1360 nM
same,TGI,SF-268 CNS,5050 nM
same,GI50,M14 melanoma,130 nM
same,TGI,M14 melanoma,292 nM
same,GI50,DU-145 prostate,163 nM
same,TGI,DU-145 prostate,398 nM
same,GI50,OVCAR-3 ovarian,1190 nM
same,TGI,OVCAR-3 ovarian,3210 nM
same,GI50,HL-60(TB) leukemia,919 nM
same,TGI,HL-60(TB) leukemia,> 18800 nM
same,GI50,A498 renal,1200 nM
same,TGI,A498 renal,2290 nM
same,GI50,NCI-H460 lung,141 nM
same,TGI,NCI-H460 lung,287 nM
same,GI50,SR leukemia,227 nM
same,TGI,SR leukemia,> 70500 nM
same,GI50,HCC-2998 colon,275 nM
same,TGI,HCC-2998 colon,1040 nM
same,GI50,COLO 205 colon,175 nM
same,TGI,COLO 205 colon,475 nM
same,GI50,TK-10 renal,1920 nM
same,TGI,TK-10 renal,5670 nM
same,GI50,PC-3 prostate,376 nM
same,TGI,PC-3 prostate,> 19000 nM
same,GI50,SK-MEL-28 melanoma,386 nM
same,TGI,SK-MEL-28 melanoma,1290 nM
same,GI50,NCI-H226 lung,160 nM
same,TGI,NCI-H226 lung,1100 nM
same,GI50,T-47D breast,1560 nM
same,TGI,T-47D breast,5290 nM
same,GI50,IGROV1 ovarian,827 nM
same,TGI,IGROV1 ovarian,1830 nM
same,GI50,SK-OV-3 ovarian,768 nM
same,TGI,SK-OV-3 ovarian,2200 nM
same,GI50,CAKI-1 renal,889 nM
same,TGI,CAKI-1 renal,2200 nM
same,GI50,NCI-H23 lung,138 nM
same,TGI,NCI-H23 lung,315 nM
same,GI50,SK-MEL-2 melanoma,1030 nM
same,TGI,SK-MEL-2 melanoma,2160 nM
same,GI50,OVCAR-8 ovarian,1300 nM
same,TGI,OVCAR-8 ovarian,3670 nM
same,GI50,MALME-3M melanoma,76.2 nM
same,TGI,MALME-3M melanoma,541 nM
same,GI50,BT-549 breast,244 nM
same,TGI,BT-549 breast,1460 nM
same,GI50,HCT-116 colon,1780 nM
same,TGI,HCT-116 colon,4620 nM
same,GI50,SK-MEL-5 melanoma,296 nM
